PubChem BioAssay (NCI)
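Five concentrations, 48 hours, 96-well plates. At the GI50, growth is halved. TGI marks complete inhibition of growth.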

What was measured:
Assay in all cases: growth of human tumour cells (NCI), 48 h
MALME-3M melanoma = tested on: MALME-3M melanoma
SF-268 CNS = tested on: SF-268 CNS
OVCAR-5 ovarian = tested on: OVCAR-5 ovarian
HS 578T breast = tested on: HS 578T breast
SN12C renal = tested on: SN12C renal
EKVX NSCLC = tested on: EKVX NSCLC
U251 CNS = tested on: U251 CNS
DU-145 prostate = tested on: DU-145 prostate
HT29 colon = tested on: HT29 colon
MCF7 breast = tested on: MCF7 breast

Structure (SMILES) | GI50 (MALME-3M melanoma) [µM] | TGI (MALME-3M melanoma) [µM] | GI50 (SF-268 CNS) [µM] | TGI (SF-268 CNS) [µM] | GI50 (OVCAR-5 ovarian) [µM] | TGI (OVCAR-5 ovarian) [µM] | GI50 (HS 578T breast) [µM] | TGI (HS 578T breast) [µM] | GI50 (SN12C renal) [µM] | TGI (SN12C renal) [µM] | GI50 (EKVX NSCLC) [µM] | TGI (EKVX NSCLC) [µM] | GI50 (U251 CNS) [µM] | TGI (U251 CNS) [µM] | GI50 (DU-145 prostate) [µM] | TGI (DU-145 prostate) [µM] | GI50 (HT29 colon) [µM] | TGI (HT29 colon) [µM] | GI50 (MCF7 breast) [µM] | TGI (MCF7 breast) [µM]
COc1cccc(-c2cc3c4c(nc5ccccc53)C(=O)c3cccnc3-c4n2)c1 | 0.822 | 3.32 | 3.27 | 14.9 | 3.05 | 8.92 | 3.18 | 11.2 | 2.44 | 6.54 | 3.98 | 14.2 | 1.66 | 7.13 | 1.67 | 3.13 | 2.49 | 6.19 | 0.418 | > 100
N#CSCc1ccc(Cl)c(CSC#N)c1 | 9.8 | 37.8 | 0.298 | 37.4 | 1.77 | 24.5 | 3.16 | 97.9 | 0.482 | 40.7 | 20.7 | > 80.3 | 9.12 | 28.4 | 0.121 | 12.7 | 0.0423 | > 37.6 | 0.0465 | 25.6
COc1ccc(C(=O)/C=C/c2cccc(Nc3ccnc4cc(Cl)ccc34)c2)cc1 | 1.79 | 6.3 |  |  | 2.6 | > 100 | 3.18 | > 100 |  |  | 1.75 | > 100 | 1.74 | 4.82 | 2.45 | > 100 | 1.64 | > 100 | 1.82 | > 100
O=[N+]([O-])c1ccc(N2CCC(CCCC3CCN(c4ccc([N+](=O)[O-])cc4[N+](=O)[O-])CC3)CC2)c([N+](=O)[O-])c1 |  | 42.4 |  | 42.6 |  | 45.7 |  | > 100 |  | > 100 |  | 34.3 |  | 29.2 |  | 61.3 |  | 22.2 |  | 28.3
O=[N+]([O-])c1ccc(N=Nc2ccc(O)c3ccccc23)cc1 | 12 | 32.7 | 2.9 | > 100 | 14.4 | 75.8 | 2.42 | 29.9 | 3.55 | > 100 | 7.44 | > 100 | 3.12 | 25.8 | 6.66 | > 100 | 13.7 | > 100 | 2.42 | > 100
O=[N+]([O-])c1cc(Cl)cnc1Br |  | 49.7 |  | 5.81 |  | 9.48 |  | 59.9 |  | 7.82 |  | 15.2 |  | 5.32 |  | > 100 |  | 8.51 |  | 2.84
Cc1nn(-c2ccc([N+](=O)[O-])cc2)c2ncnc(N/N=C/c3ccccc3O)c12 | 0.62 | 3.95 | 0.313 | > 100 | 2.04 | > 100 | 1.43 | 8.27 | 0.399 | 3.17 | 2.41 | > 100 | 0.332 | 2.44 | 0.382 | > 100 | 1.3 | > 100 | 0.36 | > 100
